What was measured:
[1] = target: Tyrosine-protein kinase JAK2 (Homo sapiens, UniProt O60674); test: JAK2 Activity Inhibition Assay
Protocol: The enzymatic activity of JAK2 was assessed by detecting the substrate phosphorylation level in a kinase reaction with a homogeneous time-resolved fluorescence (HTRF) kinase detection kit (Cisbio, 62TK0PEC). A reaction buffer contained an enzyme buffer (1×), 5 mM MgCl2, 1 mM DTT and 0.01% Brij35 from the kit; a human recombinant JAK2 protein (Carna Biosciences, 08-045) was diluted to a kinase reaction solution of 0.15 ng/μL with the reaction buffer; a substrate reaction solution contained 2.5 μM ATP and a biotin-labeled tyrosine kinase substrate diluted to 0.25 μM with the reaction buffer; a detection buffer contained 0.1 ng/μL Eu3+ labeled cage antibody (Cisbio, 61T66KLB) and 12.5 nM streptavidin-labeled XL665 (Cisbio, 610SAXLB) in the reaction buffer; the compound was dissolved to 10 μM in DMSO, followed by a serial 4-fold dilution with DMSO to a minimum concentration of 0.061 nM. Each concentration was further diluted 40-fold with the reaction buffer. To a 384-well assay plate (Corning, 3674) were added 4 μL of the compound solutions having a series of concentrations and 2 μL of JAK2 kinase reaction solutions. […] An Envision plate reader (Perkin Elmer) was then used to measure the progress of the reaction at wavelengths of 620 nm and 665 nm.

[2] = target: Non-receptor tyrosine-protein kinase TYK2 (Homo sapiens, UniProt P29597); test: TYK2 Activity Inhibition Assay
Protocol: The enzymatic activity of TYK2 was assessed by detecting the substrate phosphorylation level in a kinase reaction with a homogeneous time-resolved fluorescence (HTRF) kinase detection kit (Cisbio, 62TK0PEC). A reaction buffer contained an enzyme buffer (1×), 5 mM MgCl2, 1 mM DTT and 0.01% Brij35 from the kit; a human recombinant TYK2 protein (Carna Biosciences, 08-147) was diluted to a kinase reaction solution of 0.25 ng/μL with the reaction buffer; a substrate reaction solution contained 11.25 μM ATP and a biotin-labeled tyrosine kinase substrate diluted to 0.5 μM with the reaction buffer; a detection buffer contained 0.1 ng/μL Eu3+ labeled cage antibody (Cisbio, 61T66KLB) and 25 nM streptavidin-labeled XL665 (Cisbio, 610SAXLB) in the reaction buffer; the compound was dissolved to 10 μM in DMSO, followed by a serial 4-fold dilution with DMSO to a minimum concentration of 0.061 nM. Each concentration was further diluted 40-fold with the reaction buffer. To a 384-well assay plate (Corning, 3674) were added 4 μL of the compound solutions having a series of concentrations and 2 μL of kinase reaction solutions. After being mixed evenly, the mixtures were incubated at room temperature for 15 minutes, and then 4 μL of the substrate reaction solutions were added.

Sequence of Tyrosine-protein kinase JAK2 (O60674 whole entry): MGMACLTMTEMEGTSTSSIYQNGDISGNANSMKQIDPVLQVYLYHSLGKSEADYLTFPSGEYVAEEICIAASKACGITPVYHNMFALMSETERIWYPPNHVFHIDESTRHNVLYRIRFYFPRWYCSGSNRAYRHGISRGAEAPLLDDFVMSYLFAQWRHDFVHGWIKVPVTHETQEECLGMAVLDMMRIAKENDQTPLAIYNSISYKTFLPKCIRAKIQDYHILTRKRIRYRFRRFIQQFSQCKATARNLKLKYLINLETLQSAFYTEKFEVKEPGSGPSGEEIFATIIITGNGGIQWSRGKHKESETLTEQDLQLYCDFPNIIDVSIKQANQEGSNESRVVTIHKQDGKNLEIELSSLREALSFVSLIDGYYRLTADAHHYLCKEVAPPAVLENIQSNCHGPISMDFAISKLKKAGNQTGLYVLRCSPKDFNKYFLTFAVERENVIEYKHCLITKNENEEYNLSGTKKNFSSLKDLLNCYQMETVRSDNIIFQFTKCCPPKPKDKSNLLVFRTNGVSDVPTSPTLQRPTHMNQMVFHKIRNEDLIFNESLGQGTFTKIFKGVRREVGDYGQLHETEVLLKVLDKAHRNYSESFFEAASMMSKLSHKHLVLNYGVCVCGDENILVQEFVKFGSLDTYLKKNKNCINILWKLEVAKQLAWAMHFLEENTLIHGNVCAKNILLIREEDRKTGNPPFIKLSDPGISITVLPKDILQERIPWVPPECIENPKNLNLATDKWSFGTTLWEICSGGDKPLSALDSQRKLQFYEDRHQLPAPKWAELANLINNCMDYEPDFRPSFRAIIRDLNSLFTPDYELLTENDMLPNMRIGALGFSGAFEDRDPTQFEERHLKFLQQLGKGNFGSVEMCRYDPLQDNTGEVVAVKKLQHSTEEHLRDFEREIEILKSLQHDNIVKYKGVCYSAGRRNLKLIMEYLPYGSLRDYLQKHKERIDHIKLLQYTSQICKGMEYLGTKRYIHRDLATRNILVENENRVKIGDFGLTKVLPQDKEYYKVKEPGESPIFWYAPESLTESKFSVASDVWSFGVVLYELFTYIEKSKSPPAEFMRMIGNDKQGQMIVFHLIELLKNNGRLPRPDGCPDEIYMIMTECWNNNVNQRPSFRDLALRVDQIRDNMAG
Sequence of Non-receptor tyrosine-protein kinase TYK2 (P29597 whole entry): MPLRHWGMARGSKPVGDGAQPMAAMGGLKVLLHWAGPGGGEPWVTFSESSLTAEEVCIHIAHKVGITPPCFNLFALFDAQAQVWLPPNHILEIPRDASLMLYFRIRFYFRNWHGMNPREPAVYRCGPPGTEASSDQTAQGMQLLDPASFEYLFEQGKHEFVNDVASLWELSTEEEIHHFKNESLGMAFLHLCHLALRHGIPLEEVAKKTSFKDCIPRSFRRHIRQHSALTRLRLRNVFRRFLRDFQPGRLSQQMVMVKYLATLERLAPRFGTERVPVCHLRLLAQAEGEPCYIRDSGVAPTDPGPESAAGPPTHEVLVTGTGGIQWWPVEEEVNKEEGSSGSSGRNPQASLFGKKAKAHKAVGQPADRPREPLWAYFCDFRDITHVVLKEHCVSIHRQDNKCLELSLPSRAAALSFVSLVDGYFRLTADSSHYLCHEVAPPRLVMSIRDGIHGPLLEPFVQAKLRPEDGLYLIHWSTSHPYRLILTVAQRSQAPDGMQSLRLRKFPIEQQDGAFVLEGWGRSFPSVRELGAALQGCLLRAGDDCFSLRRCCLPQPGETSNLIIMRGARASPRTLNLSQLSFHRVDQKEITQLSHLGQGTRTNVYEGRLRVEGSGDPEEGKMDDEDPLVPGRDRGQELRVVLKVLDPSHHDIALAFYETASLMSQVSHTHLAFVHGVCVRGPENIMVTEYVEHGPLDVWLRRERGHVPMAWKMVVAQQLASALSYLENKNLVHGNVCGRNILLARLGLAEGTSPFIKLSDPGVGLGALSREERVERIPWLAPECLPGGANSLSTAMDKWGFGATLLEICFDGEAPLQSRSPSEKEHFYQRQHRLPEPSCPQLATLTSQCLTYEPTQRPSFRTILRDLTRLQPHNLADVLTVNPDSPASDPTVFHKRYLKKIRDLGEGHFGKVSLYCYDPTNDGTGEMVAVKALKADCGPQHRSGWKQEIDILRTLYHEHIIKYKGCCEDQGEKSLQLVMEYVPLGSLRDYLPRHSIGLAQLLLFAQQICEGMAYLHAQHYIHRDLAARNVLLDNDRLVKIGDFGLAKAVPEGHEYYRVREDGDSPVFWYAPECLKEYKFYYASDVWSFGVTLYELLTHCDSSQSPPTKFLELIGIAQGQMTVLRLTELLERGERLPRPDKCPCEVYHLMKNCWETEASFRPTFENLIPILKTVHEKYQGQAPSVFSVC

IC50 [1]: 1.9 nM
IC50 [2]: 0.2 nM
SMILES: O=C1NCCn2c(-c3c(F)cccc3F)nc(Nc3ccc(C(=O)N4CCOCC4)cc3)c21 [US20240246984, Compound 2.]

— BindingDB's records for patent US20240246984 (Beijing Innocare Pharma Tech, 2024)
